Assay results taken from US7129256B2, “Antiparkinsonism drugs” (Shionogi & Co., Ltd., priority 2000, dated 2006).
Marks after values point to notes of the source that are not given here.

Assays:
[1] = system: mice pre-treated with reserpine; assay: reserpine-induced catalepsy test (bar test, catalepsy score); type: in vivo, ddy mice (male); conditions: reserpine 5 mg/kg i.p.
Protocol: The effects of compound (IX) in single administration and in combination with L-DOPA on cataleptic responses were examined in mice pre-treated with a monoamine-depleting drug, reserpine.
Reserpine (5 mg/kg, i.p., Apoplon Inj, Daiichi Pharmaceutical) was administrated to ddy mice (male). On the next day, compound (IX) (0.3, 1, 3 mg/kg, p.o.) with or without L-DOPA (25, 100 mg/kg, i.p., dissolved in 0.1N HCl and diluted with distilled water for injection (Otsuka Pharmaceutical)) was administrated to the mice and catalepsy test was performed after 1 hour. When L-DOPA was administrated, mice were pre-treated with carbidopa (25 mg/kg, i.p., 0.5% lactic acid) before 30 min.
The forelimbs or hindlimbs of each mouse were placed on a 4.5 cm high horizontal bar and the time was measured (cut off time 30 sec) until both legs reach the floor. The cataleptic responses were scored as follows (less than 5 sec.: 0 point, 5 sec. to less than 10 sec.: 1 point, 10 sec to less than 15 sec.: 2 points, 15 sec. to than 20 sec.: 3 points, 20 sec. to less than 25 sec.: 4 points, 25 sec. to less than 30 sec.: 5 points, 30 sec. or more: 6 points).
For forelimbs, the scores for 3 repetitive tests were summated. […] The catalepsy scores were calculated as the total scores for forelimbs and hindlimbs.

normal mice = assay: spontaneous locomotor activity after oral administration to normal mice (SCANET); type: in vivo, C57BL/6 mice (male); parameters: spontaneous locomotor activity / spontaneous locomotor activity, Total: unit not given here; conditions: for spontaneous locomotor activity, Total: total for 5 hours after administration
Protocol: The enhancing effects of compound (IX) on the spontaneous locomotor activity were examined in normal mice.
Compound (IX) was orally administrated to C57BL/6 mice (male) and the spontaneous locomotor activity was measured with a locomotor activity measuring apparatus (SCANET, TOYO sangyo). Mice were familiarized to the cage of the apparatus for at least 60 min. Compound (IX) (1,3,10 mg/kg) or vehicle (vehicle, distilled water Otsuka) was administrated orally. The spontaneous locomotor activity was measured for 5 hours after the mice were returned to the cage.

MPTP-treated mice = assay: spontaneous locomotor activity of MPTP-treated mice; type: in vivo, C57BL/6 mice (male); conditions: MPTP 40 mg/kg × 2
Protocol: Mice injected with a dopaminergic toxin, MPTP were used as a model for Parkinson's disease and the effects of single administration of compound (IX) on the reduction of the spontaneous locomotor activity caused by MPTP-treatment were examined.
MPTP (40 mg/kg, i.p., saline) was injected twice at 24-hr intervals to C57BL/6 mice (male), and the day after the last administration, the mice were placed in locomotor activity measuring apparatus. After 30 min, compound (IX) alone (0.3, 1, 3 mg/kg, p.o.) was administered.

**Q.** For `N[C@@H](Cc1ccc(O)c(O)c1)C(=O)O` [L-DOPA, reference compound], which “catalepsy score, mean” value ([1]; L-DOPA 100 mg/kg i.p. + solvent p.o., 1 hour after administration) is on record?
**A.** 23.0

**Q.** For `C[C@@H]1OC(=O)N[C@@H]1C(=O)NC(Cc1cscn1)C(=O)N1CCC[C@H]1C` (stereo in doubt) [Compound (IX)], which spontaneous locomotor activity (normal mice; 1 mg/kg p.o., Time 0–30) is on record?
**A.** 3737

**Q.** What about the spontaneous locomotor activity (normal mice; 1 mg/kg p.o., Time 30–0 (before administration)) of the same molecule?
**A.** 436

**Q.** And the spontaneous locomotor activity (normal mice; 1 mg/kg p.o., Time 30–60)?
**A.** 842

**Q.** What about the spontaneous locomotor activity (normal mice; 1 mg/kg p.o., Time 60–30 (before administration)) of the same molecule?
**A.** 1016

**Q.** What about the spontaneous locomotor activity (normal mice; 1 mg/kg p.o., Time 60–90) of the same molecule?
**A.** 1178

**Q.** And the spontaneous locomotor activity (normal mice; 1 mg/kg p.o., Time 90–120)?
**A.** 1281

**Q.** What about the spontaneous locomotor activity (normal mice; 1 mg/kg p.o., Time 120–150) of the same molecule?
**A.** 991

**Q.** And the spontaneous locomotor activity (normal mice; 1 mg/kg p.o., Time 150–180)?
**A.** 273

**Q.** And the spontaneous locomotor activity (normal mice; 1 mg/kg p.o., Time 180–210)?
**A.** 411

**Q.** What about the spontaneous locomotor activity (normal mice; 1 mg/kg p.o., Time 210–240) of the same molecule?
**A.** 135

**Q.** And the spontaneous locomotor activity (normal mice; 1 mg/kg p.o., Time 240–270)?
**A.** 463

**Q.** What about the spontaneous locomotor activity (normal mice; 1 mg/kg p.o., Time 270–300) of the same molecule?
**A.** 366

**Q.** And the “spontaneous locomotor activity, Total” value (normal mice; 1 mg/kg p.o.)?
**A.** 9676

**Q.** And the spontaneous locomotor activity (normal mice; 3 mg/kg p.o., Time 0–30)?
**A.** 3755

**Q.** What about the spontaneous locomotor activity (normal mice; 3 mg/kg p.o., Time 30–0 (before administration)) of the same molecule?
**A.** 782

**Q.** And the spontaneous locomotor activity (normal mice; 3 mg/kg p.o., Time 30–60)?
**A.** 2626

**Q.** What about the spontaneous locomotor activity (normal mice; 3 mg/kg p.o., Time 60–30 (before administration)) of the same molecule?
**A.** 2349

**Q.** And the spontaneous locomotor activity (normal mice; 3 mg/kg p.o., Time 60–90)?
**A.** 2690

**Q.** And the spontaneous locomotor activity (normal mice; 3 mg/kg p.o., Time 90–120)?
**A.** 2632

**Q.** And the spontaneous locomotor activity (normal mice; 3 mg/kg p.o., Time 120–150)?
**A.** 2230

**Q.** And the spontaneous locomotor activity (normal mice; 3 mg/kg p.o., Time 150–180)?
**A.** 868

**Q.** What about the spontaneous locomotor activity (normal mice; 3 mg/kg p.o., Time 180–210) of the same molecule?
**A.** 377

**Q.** What about the spontaneous locomotor activity (normal mice; 3 mg/kg p.o., Time 210–240) of the same molecule?
**A.** 940

**Q.** What about the spontaneous locomotor activity (normal mice; 3 mg/kg p.o., Time 240–270) of the same molecule?
**A.** 266

**Q.** And the spontaneous locomotor activity (normal mice; 3 mg/kg p.o., Time 270–300)?
**A.** 597

**Q.** And the “spontaneous locomotor activity, Total” value (normal mice; 3 mg/kg p.o., P < 0.05 vs vehicle)?
**A.** 16941*

**Q.** And the spontaneous locomotor activity (normal mice; 10 mg/kg p.o., Time 0–30)?
**A.** 5910

**Q.** What about the spontaneous locomotor activity (normal mice; 10 mg/kg p.o., Time 30–0 (before administration)) of the same molecule?
**A.** 401

**Q.** And the spontaneous locomotor activity (normal mice; 10 mg/kg p.o., Time 30–60)?
**A.** 5079

**Q.** What about the spontaneous locomotor activity (normal mice; 10 mg/kg p.o., Time 60–30 (before administration)) of the same molecule?
**A.** 1700

**Q.** What about the spontaneous locomotor activity (normal mice; 10 mg/kg p.o., Time 60–90) of the same molecule?
**A.** 5485

**Q.** What about the spontaneous locomotor activity (normal mice; 10 mg/kg p.o., Time 90–120) of the same molecule?
**A.** 6138

**Q.** What about the spontaneous locomotor activity (normal mice; 10 mg/kg p.o., Time 120–150) of the same molecule?
**A.** 5582

**Q.** And the spontaneous locomotor activity (normal mice; 10 mg/kg p.o., Time 150–180)?
**A.** 5390

**Q.** What about the spontaneous locomotor activity (normal mice; 10 mg/kg p.o., Time 180–210) of the same molecule?
**A.** 4218

**Q.** What about the spontaneous locomotor activity (normal mice; 10 mg/kg p.o., Time 210–240) of the same molecule?
**A.** 3297

**Q.** What about the spontaneous locomotor activity (normal mice; 10 mg/kg p.o., Time 240–270) of the same molecule?
**A.** 2305

**Q.** What about the spontaneous locomotor activity (normal mice; 10 mg/kg p.o., Time 270–300) of the same molecule?
**A.** 1457

**Q.** What about the “spontaneous locomotor activity, Total” value (normal mice; 10 mg/kg p.o., P < 0.01 vs vehicle) of the same molecule?
**A.** 44861**

**Q.** What about the “dose that increased the spontaneous locomotor activity” value (normal mice; p.o., normal mice) of the same molecule?
**A.** ≥ 3 mg/kg

**Q.** What about the “catalepsy score, mean” value ([1]; compound (IX) 0.3 mg/kg p.o. + L-DOPA 100 mg/kg i.p., 1 hour) of the same molecule?
**A.** 17.4

**Q.** And the “spontaneous locomotor activity, Total” value (MPTP-treated mice; compound (IX) alone 0.3 mg/kg p.o.)?
**A.** 2731 ± 875

**Q.** What about the “spontaneous locomotor activity, Total” value (MPTP-treated mice; compound (IX) alone 1 mg/kg p.o.) of the same molecule?
**A.** 4370 ± 1507
